Measured values reported in PMC5026937 (Antiviral research, 2016).

System: A/Switzerland/9715293/2013 (H3N2)
Format: cell-based, Influenza A virus

SMILES: CCC(CC)O[C@@H]1C=C(C(=O)O)C[C@H](N)[C@H]1NC(C)=O [Oseltamivir carboxylate, oseltamivir carboxylate]
- EC50 increase on serial passage: more than ten-fold
